Target: nuclear receptor 4A1 (NR4A1) (Homo sapiens, UniProt P22736)
Assay: tryptophan fluorescence quenching with the isolated LBD ([…])
Assay type: binding

Sequence of nuclear receptor 4A1 (NR4A1) (P22736 360-598 limits assumed): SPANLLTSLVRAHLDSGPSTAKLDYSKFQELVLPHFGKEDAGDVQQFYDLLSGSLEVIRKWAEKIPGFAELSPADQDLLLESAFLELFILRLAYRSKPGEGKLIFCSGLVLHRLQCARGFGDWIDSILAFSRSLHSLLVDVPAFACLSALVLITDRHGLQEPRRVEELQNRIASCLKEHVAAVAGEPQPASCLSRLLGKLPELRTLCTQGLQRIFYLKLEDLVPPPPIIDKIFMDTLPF

O=C1C[C@@H](c2ccc(O)cc2)Oc2cc(O)cc(O)c21 [naringenin]
Kd: 4.5 µM
